In PubChem BioAssay (NCI):
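Method: 48-hour compound exposure of cells in 96-well plates, five concentrations, linear interpolation of endpoints. Here, GI50 denotes the concentration required for 50% inhibition of growth. TGI is the concentration that stops growth completely.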

Experiments:
Assay in all cases: NCI anticancer screen, dose series, 48 h
MCF7 breast = tested on: MCF7 breast
OVCAR-5 ovarian = tested on: OVCAR-5 ovarian
MDA-MB-435 = tested on: MDA-MB-435
DU-145 prostate = tested on: DU-145 prostate
A549 NSCLC = tested on: A549 NSCLC
CCRF-CEM leukemia = tested on: CCRF-CEM leukemia
MOLT-4 leukemia = tested on: MOLT-4 leukemia
ACHN renal = tested on: ACHN renal
OVCAR-3 ovarian = tested on: OVCAR-3 ovarian
OVCAR-8 ovarian = tested on: OVCAR-8 ovarian
UACC-257 melanoma = tested on: UACC-257 melanoma
UO-31 renal = tested on: UO-31 renal
SK-MEL-2 melanoma = tested on: SK-MEL-2 melanoma
U251 CNS = tested on: U251 CNS
SW-620 colon = tested on: SW-620 colon
RPMI-8226 leukemia = tested on: RPMI-8226 leukemia
HS 578T breast = tested on: HS 578T breast
HCT-15 colon = tested on: HCT-15 colon
K-562 leukemia = tested on: K-562 leukemia
SNB-75 CNS = tested on: SNB-75 CNS
IGROV1 ovarian = tested on: IGROV1 ovarian
CAKI-1 renal = tested on: CAKI-1 renal
COLO 205 colon = tested on: COLO 205 colon
MALME-3M melanoma = tested on: MALME-3M melanoma
OVCAR-4 ovarian = tested on: OVCAR-4 ovarian
NCI-H226 lung = tested on: NCI-H226 lung
A498 renal = tested on: A498 renal
HOP-62 NSCLC = tested on: HOP-62 NSCLC
HCC-2998 colon = tested on: HCC-2998 colon
SF-539 CNS = tested on: SF-539 CNS
NCI-H522 lung = tested on: NCI-H522 lung
T-47D breast = tested on: T-47D breast
RXF 393 renal = tested on: RXF 393 renal
MDA-MB-231 breast = tested on: MDA-MB-231 breast
PC-3 prostate = tested on: PC-3 prostate
NCI/ADR-RES ovarian = tested on: NCI/ADR-RES ovarian
TK-10 renal = tested on: TK-10 renal
HT29 colon = tested on: HT29 colon
SNB-19 CNS = tested on: SNB-19 CNS
SF-268 CNS = tested on: SF-268 CNS
UACC-62 melanoma = tested on: UACC-62 melanoma
NCI-H460 lung = tested on: NCI-H460 lung
LOX IMVI melanoma = tested on: LOX IMVI melanoma
KM12 colon = tested on: KM12 colon
HL-60(TB) leukemia = tested on: HL-60(TB) leukemia
HCT-116 colon = tested on: HCT-116 colon
786-0 renal = tested on: 786-0 renal
BT-549 breast = tested on: BT-549 breast
SK-MEL-5 melanoma = tested on: SK-MEL-5 melanoma
EKVX NSCLC = tested on: EKVX NSCLC
SF-295 CNS = tested on: SF-295 CNS
HOP-92 NSCLC = tested on: HOP-92 NSCLC
NCI-H23 lung = tested on: NCI-H23 lung
SK-OV-3 ovarian = tested on: SK-OV-3 ovarian
SK-MEL-28 melanoma = tested on: SK-MEL-28 melanoma
M14 melanoma = tested on: M14 melanoma
SN12C renal = tested on: SN12C renal

COc1cccc2c1[C@H](OC)[C@]13O[C@@]1(C2=O)[C@H](O)[C@H](C)[C@@](O)(C(=O)[C@@H]1O[C@H]1C)[C@@H]3O
TGI (MCF7 breast): 1120 nM | TGI (OVCAR-5 ovarian): 859 nM | GI50 (MDA-MB-435): 286 nM | TGI (MDA-MB-435): 812 nM | TGI (DU-145 prostate): 1130 nM | GI50 (A549 NSCLC): 297 nM | TGI (A549 NSCLC): 10700 nM | GI50 (CCRF-CEM leukemia): 323 nM | TGI (CCRF-CEM leukemia): > 100000 nM | GI50 (MOLT-4 leukemia): 335 nM | GI50 (ACHN renal): 283 nM | TGI (ACHN renal): 820 nM | TGI (OVCAR-3 ovarian): 824 nM | GI50 (OVCAR-8 ovarian): 317 nM | TGI (OVCAR-8 ovarian): > 100000 nM | GI50 (UACC-257 melanoma): 270 nM | TGI (UACC-257 melanoma): 818 nM | TGI (UO-31 renal): 800 nM | GI50 (SK-MEL-2 melanoma): 230 nM | TGI (SK-MEL-2 melanoma): 542 nM | TGI (U251 CNS): > 33000 nM | GI50 (SW-620 colon): 306 nM | TGI (SW-620 colon): > 36000 nM | GI50 (RPMI-8226 leukemia): 303 nM | TGI (RPMI-8226 leukemia): 866 nM | GI50 (HS 578T breast): 283 nM | TGI (HS 578T breast): 962 nM | GI50 (HCT-15 colon): 313 nM | TGI (HCT-15 colon): 1090 nM | GI50 (K-562 leukemia): 326 nM | TGI (K-562 leukemia): > 100000 nM | TGI (SNB-75 CNS): 605 nM | GI50 (IGROV1 ovarian): 295 nM | TGI (IGROV1 ovarian): 894 nM | TGI (CAKI-1 renal): 909 nM | GI50 (COLO 205 colon): 239 nM | TGI (COLO 205 colon): 592 nM | GI50 (MALME-3M melanoma): 200 nM | TGI (MALME-3M melanoma): 436 nM | GI50 (OVCAR-4 ovarian): 246 nM | TGI (OVCAR-4 ovarian): 642 nM | GI50 (NCI-H226 lung): 275 nM | TGI (NCI-H226 lung): 802 nM | GI50 (A498 renal): 215 nM | TGI (A498 renal): 542 nM | GI50 (HOP-62 NSCLC): 316 nM | TGI (HOP-62 NSCLC): 1790 nM | GI50 (HCC-2998 colon): 215 nM | TGI (HCC-2998 colon): 485 nM | TGI (SF-539 CNS): 698 nM | GI50 (NCI-H522 lung): 264 nM | TGI (NCI-H522 lung): 803 nM | TGI (T-47D breast): 1860 nM | GI50 (RXF 393 renal): 203 nM | TGI (RXF 393 renal): 461 nM | GI50 (MDA-MB-231 breast): 237 nM | TGI (MDA-MB-231 breast): 657 nM | GI50 (PC-3 prostate): 304 nM | TGI (PC-3 prostate): 1110 nM | TGI (NCI/ADR-RES ovarian): 1180 nM | GI50 (TK-10 renal): 261 nM | TGI (TK-10 renal): 921 nM | GI50 (HT29 colon): 321 nM | TGI (HT29 colon): 1580 nM | TGI (SNB-19 CNS): 1060 nM | GI50 (SF-268 CNS): 295 nM | TGI (SF-268 CNS): 1030 nM | GI50 (UACC-62 melanoma): 263 nM | TGI (UACC-62 melanoma): 765 nM | GI50 (NCI-H460 lung): 326 nM | TGI (NCI-H460 lung): 1270 nM | GI50 (LOX IMVI melanoma): 180 nM | TGI (LOX IMVI melanoma): 351 nM | TGI (KM12 colon): 1710 nM | GI50 (HL-60(TB) leukemia): 238 nM | TGI (HL-60(TB) leukemia): 696 nM | TGI (HCT-116 colon): 1310 nM | GI50 (786-0 renal): 298 nM | TGI (786-0 renal): 2060 nM | TGI (BT-549 breast): 838 nM | GI50 (SK-MEL-5 melanoma): 223 nM | TGI (SK-MEL-5 melanoma): 507 nM | GI50 (EKVX NSCLC): 235 nM | TGI (EKVX NSCLC): 655 nM | GI50 (SF-295 CNS): 285 nM | TGI (SF-295 CNS): 943 nM | GI50 (HOP-92 NSCLC): 223 nM | TGI (HOP-92 NSCLC): 717 nM | GI50 (NCI-H23 lung): 243 nM | TGI (NCI-H23 lung): 611 nM | GI50 (SK-OV-3 ovarian): 345 nM | TGI (SK-OV-3 ovarian): 2430 nM | GI50 (SK-MEL-28 melanoma): 271 nM | TGI (SK-MEL-28 melanoma): 722 nM | TGI (M14 melanoma): 534 nM | GI50 (SN12C renal): 197 nM | TGI (SN12C renal): 691 nM
